Experimental data: patent US20110105492A1, “ARYL SUBSTITUTED ARYLINDENOPYRIMIDINES AND THEIR USE AS HIGHLY SELECTIVE ADENOSINE A2a RECEPTOR ANTAGONISTS” (priority 2009, published 2011)

Key:
[1] = target: T1, human adenosine A1 receptor (Homo sapiens, UniProt P30542); assay: Adenosine A1 Receptor Functional Assay (A1GAL2); type: cell-based; settings: CHO-K1 cells overexpressing human A1, cAMP inducible beta-galactosidase reporter, antagonist vs 4 nM r-PIA/1 uM Forskolin challenge
T1 construct: expressed in transfected cells; host or cells: CHO-K1 cells with a cAMP inducible beta-galactosidase reporter gene
T1 sequence (P30542 1-326): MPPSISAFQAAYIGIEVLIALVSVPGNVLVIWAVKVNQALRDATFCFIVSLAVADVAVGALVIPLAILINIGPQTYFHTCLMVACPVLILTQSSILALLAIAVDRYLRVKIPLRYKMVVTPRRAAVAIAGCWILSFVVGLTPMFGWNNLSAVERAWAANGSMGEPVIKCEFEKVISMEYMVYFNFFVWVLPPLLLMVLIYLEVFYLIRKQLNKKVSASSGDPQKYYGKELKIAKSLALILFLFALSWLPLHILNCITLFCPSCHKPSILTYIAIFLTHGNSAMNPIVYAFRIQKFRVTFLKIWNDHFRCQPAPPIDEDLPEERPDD
Procedure: Adenosine A1 Receptor Functional Assay (A1GAL2)
To initiate the functional assay, cryopreserved CHO-K1 cells overexpressing the human adenosine A1 receptor and containing a cAMP inducible beta-galactosidase reporter gene were thawed, centrifuged, DMSO containing media removed, and then seeded with fresh culture media into clear 384-well tissue culture treated plates (BD #353961) at a concentration of 10K cells/well. Prior to assay, these plates were cultured for two days at 37° C., 5% CO2, 90% Rh. On the day of the functional assay, culture media was removed and replaced with 45 μL assay medium (Hams/F-12 Modified (Mediatech # 10-080CV) supplemented w/0.1% BSA). Test compounds were diluted and 11 point curves created at a 1000× concentration in 100% DMSO. Immediately after addition of assay media to the cell plates, 50 nL of the appropriate test compound antagonist or agonist control curves were added to cell plates using a Cartesian Hummingbird. Compound curves were allowed to incubate at room temperature on cell plates for approximately 15 minutes before addition of a 4 nM r-PIA (Sigma P4532)/1 uM Forskolin (Sigma F3917) agonist challenge (5 μL volume). A control curve of r-PIA in 1 uM Forskolin, a DMSO/Media control, and a single dose of Forskolin were also included on each plate. After additions, cell plates were allowed to incubate at 37° C., 5% CO2, 90% Rh for 5.5-6 hours. After incubation, media was removed, and cell plates were washed 1×50 μL with DPBS w/o Ca & Mg (Mediatech 21-031-CV). Into dry wells, 20 μL of 1× Reporter Lysis Buffer (Promega E3971 (diluted in dH2O from 5× stock)) was added to each well and plates frozen at −20° C. overnight. For β-galactosidase enzyme colorimetric assay, plates were thawed out at room temperature and 20 μL 2× assay buffer (Promega) was added to each well. Color was allowed to develop at 37° C., 5% CO2, 90% Rh for 1-1.5 hours or until reasonable signal appeared. The colorimetric reaction was stopped with the addition of 60 μL/well 1M sodium carbonate. Plates were counted at 405 nm on a SpectraMax Microplate Reader (Molecular Devices). Data was analyzed in Microsoft Excel and IC/EC50 curves were fit using a standardized macro.

[2] = target: T2, human adenosine A2A receptor (Homo sapiens, UniProt P29274); assay: Adenosine A2A Receptor Functional Assay (A2AGAL2); type: cell-based; settings: for IC50: CHO-K1 cells overexpressing human A2A, cAMP inducible beta-galactosidase reporter, antagonist vs 15 nM NECA challenge; for A1/A2A: ratio of A1Gal2 to A2AGal2 value
T2 construct: expressed in transfected cells; host or cells: CHO-K1 cells with a cAMP inducible beta-galactosidase reporter gene
Procedure: Adenosine A2A Receptor Functional Assay (A2AGAL2)
To initiate the functional assay, cryopreserved CHO-K1 cells overexpressing the human adenosine A2A receptor and containing a cAMP inducible beta-galactosidase reporter gene were thawed, centrifuged, DMSO containing media removed, and then seeded with fresh culture media into clear 384-well tissue culture treated plates (BD #353961) at a concentration of 10K cells/well. Prior to assay, these plates were cultured for two days at 37° C., 5% CO2, 90% Rh. On the day of the functional assay, culture media was removed and replaced with 45 μL assay medium (Hams/F-12 Modified (Mediatech # 10-080CV) supplemented w/0.1% BSA). Test compounds were diluted and 11 point curves created at a 1000× concentration in 100% DMSO. Immediately after addition of assay media to the cell plates, 50 nL of the appropriate test compound antagonist or agonist control curves were added to cell plates using a Cartesian Hummingbird. Compound curves were allowed to incubate at room temperature on cell plates for approximately 15 minutes before addition of a 15 nM NECA (Sigma E2387) agonist challenge (5 μL volume). A control curve of NECA, a DMSO/Media control, and a single dose of Forskolin (Sigma F3917) were also included on each plate. After additions, cell plates were allowed to incubate at 37° C., 5% CO2, 90% Rh for 5.5-6 hours. After incubation, media were removed, and cell plates were washed 1×50 μL with DPBS w/o Ca & Mg (Mediatech 21-031-CV). Into dry wells, 20 μL of 1× Reporter Lysis Buffer (Promega E3971 (diluted in dH2O from 5× stock)) was added to each well and plates frozen at −20° C. overnight. For β-galactosidase enzyme colorimetric assay, plates were thawed out at room temperature and 20 μL 2× assay buffer (Promega) was added to each well. Color was allowed to develop at 37° C., 5% CO2, 90% Rh for 1-1.5 hours or until reasonable signal appeared. The colorimetric reaction was stopped with the addition of 60 μL/well 1M sodium carbonate. Plates were counted at 405 nm on a SpectraMax Microplate Reader (Molecular Devices). Data was analyzed in Microsoft Excel and IC/EC50 curves were fit using a standardized macro.

T2 sequence (P29274 whole entry): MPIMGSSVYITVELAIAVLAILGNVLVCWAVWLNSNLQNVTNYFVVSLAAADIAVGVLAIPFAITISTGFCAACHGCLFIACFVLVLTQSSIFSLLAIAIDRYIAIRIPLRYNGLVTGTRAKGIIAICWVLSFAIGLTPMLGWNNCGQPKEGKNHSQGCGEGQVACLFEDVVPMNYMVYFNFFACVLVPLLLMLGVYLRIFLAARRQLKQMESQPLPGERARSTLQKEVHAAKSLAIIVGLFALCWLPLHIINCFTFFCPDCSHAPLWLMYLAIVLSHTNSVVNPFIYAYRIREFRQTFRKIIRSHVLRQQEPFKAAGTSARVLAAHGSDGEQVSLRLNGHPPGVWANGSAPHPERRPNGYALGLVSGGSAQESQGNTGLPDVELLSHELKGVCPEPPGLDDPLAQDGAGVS

Compound	IC50 [1] [nM]	IC50 [2] [nM]	A1/A2A [2]
Nc1nc(-c2ccc(F)cc2)c2c(n1)-c1c(cccc1-c1ccc(N3CCN(CCC(F)(F)F)CC3)cc1)C2=O [Example 1, 2-Amino-4-(4-fluoro-phenyl)-9-{4-[4-(3,3,3-trifluoro-propyl)-piperazin-1-yl]-phenyl}-indeno[1,2-d]pyrimidin-5-one]	5500	1.8	3055.56
Nc1nc(-c2ccc(F)cc2)c2c(n1)-c1c(cccc1-c1ccc(N3CCN(Cc4ccccc4)CC3)cc1)C2=O [Example 4, 2-Amino-9-[4-(4-benzyl-piperazin-1-yl)-phenyl]-4-(4-fluoro-phenyl)-indeno[1,2-d]pyrimidin-5-one]	3100	10	310
CC(C)N1CCN(c2ccc(-c3cccc4c3-c3nc(N)nc(-c5ccc(F)cc5)c3C4=O)cc2)CC1 [Example 9, 2-Amino-4-(4-fluoro-phenyl)-9-[4-(4-isopropyl-piperazin-1-yl)-phenyl]-indeno[1,2-d]pyrimidin-5-one]	1800	16	112.5
CCC(CC)N1CCN(c2ccc(-c3cccc4c3-c3nc(N)nc(-c5ccc(F)cc5)c3C4=O)cc2)CC1 [Example 5, 2-Amino-9-{4-[4-(1-ethyl-propyl)-piperazin-1-yl]-phenyl}-4-(4-fluoro-phenyl)-indeno[1,2-d]pyrimidin-5-one]	4200	23	182.609
Nc1nc(-c2ccc(F)cc2)c2c(n1)-c1c(cccc1-c1ccc(N3CCN(CC4CC4)CC3)cc1)C2=O [Example 7, 2-Amino-9-[4-(4-cyclopropylmethyl-piperazin-1-yl)-phenyl]-4-(4-fluoro-phenyl)-indeno[1,2-d]pyrimidin-5-one]	1100	8.3	131.69
CCC(C)N1CCN(c2ccc(-c3cccc4c3-c3nc(N)nc(-c5ccc(F)cc5)c3C4=O)cc2)CC1 (stereo not drawn) [Example 6, 2-Amino-9-[4-(4-sec-butyl-piperazin-1-yl)-phenyl]-4-(4-fluoro-phenyl)-indeno[1,2-d]pyrimidin-5-one]	1400	9.8	142.857
Cc1cccc(-c2cccc3c2-c2nc(N)nc(-c4ccc(F)cc4)c2C3=O)c1 [Example 16, 2-Amino-4-(4-fluoro-phenyl)-9-m-tolyl-indeno[1,2-d]pyrimidin-5-one]	1800	31	58.0645
CC(C)CN1CCN(c2ccc(-c3cccc4c3-c3nc(N)nc(-c5ccc(F)cc5)c3C4=O)cc2)CC1 [Example 2, 2-Amino-4-(4-fluoro-phenyl)-9-[4-(4-isobutyl-piperazin-1-yl)-phenyl]-indeno[1,2-d]pyrimidin-5-one]	4200	7.1	591.549
Nc1nc(-c2ccc(F)cc2)c2c(n1)-c1c(cccc1-c1cccc(F)c1)C2=O [Example 3, 2-Amino-4-(4-fluoro-phenyl)-9-(3-fluoro-phenyl)-indeno[1,2-d]pyrimidin-5-one]	8900	26	342.308

More lines, in order of falling IC50 [1], values ahead:

IC50 [1] [nM]	IC50 [2] [nM]	A1/A2A [2]	Compound
1100	11	100	CC(C)CCN1CCN(c2ccc(-c3cccc4c3-c3nc(N)nc(-c5ccc(F)cc5)c3C4=O)cc2)CC1 [Example 11, 2-Amino-4-(4-fluoro-phenyl)-9-{4-[4-(3-methyl-butyl)-piperazin-1-yl]-phenyl}-indeno[1,2-d]pyrimidin-5-one]
760	10	76	CCN1CCN(c2ccc(-c3cccc4c3-c3nc(N)nc(-c5ccc(F)cc5)c3C4=O)cc2)CC1 [Example 12, 2-Amino-9-[4-(4-ethyl-piperazin-1-yl)-phenyl]-4-(4-fluoro-phenyl)-indeno[1,2-d]pyrimidin-5-one]
570	8.6	66.2791	Nc1nc(-c2ccccc2)c2c(n1)-c1c(cccc1-c1ccccc1)C2=O [Example 14, 2-Amino-4,9-diphenyl-indeno[1,2-d]pyrimidin-5-one]
520	8.7	59.7701	CCCN1CCN(c2ccc(-c3cccc4c3-c3nc(N)nc(-c5ccc(F)cc5)c3C4=O)cc2)CC1 [Example 15, 2-Amino-4-(4-fluoro-phenyl)-9-[4-(4-propyl-piperazin-1-yl)-phenyl]-indeno[1,2-d]pyrimidin-5-one]
330	6.3	52.381	COc1ccc(-c2cccc3c2-c2nc(N)nc(-c4ccccc4)c2C3=O)cc1 [Example 17, 2-Amino-9-(4-methoxy-phenyl)-4-phenyl-indeno[1,2-d]pyrimidin-5-one]
270	3.9	69.2308	Nc1nc(-c2ccc(F)cc2)c2c(n1)-c1c(cccc1-c1ccc(OCCN3CCOCC3)cc1)C2=O [Example 13, 2-Amino-4-(4-fluoro-phenyl)-9-[4-(2-morpholin-4-yl-ethoxy)-phenyl]-indeno[1,2-d]pyrimidin-5-one]
270	2.6	103.846	N#Cc1ccc(-c2cccc3c2-c2nc(N)nc(-c4ccc(F)cc4)c2C3=O)cc1 [Example 10, 4-[2-Amino-4-(4-fluoro-phenyl)-5-oxo-5H-indeno[1,2-d]pyrimidin-9-yl]-benzonitrile]
230	1.8	127.778	COCCN1CCN(c2ccc(-c3cccc4c3-c3nc(N)nc(-c5ccc(F)cc5)c3C4=O)cc2)CC1 [Example 8, 2-Amino-4-(4-fluoro-phenyl)-9-{4-[4-(2-methoxy-ethyl)-piperazin-1-yl]-phenyl}-indeno[1,2-d]pyrimidin-5-one]
